According to article PMC4890880 (ACS infectious diseases, 2016):
Where two headings read alike, the source gives them in different places.

Experiments:
HepG2-A16-CD81EGFP cells = conditions: for IC50: read-out: Tox_IC50, HepG2 cytotoxicity
[1] = test system: Plasmodium berghei (Pb-Luc) exoerythrocytic-stage parasites; conditions: for normalized signal at concentration 0.000508053 / normalized signal at concentration 0.00152416 / normalized signal at concentration 0.00457247 / normalized signal at concentration 0.0137174 / normalized signal at concentration 0.0411523 / normalized signal at concentration 0.123457 / normalized signal at concentration 0.37037 / normalized signal at concentration 1.11111 / normalized signal at concentration 3.33333 / normalized signal at concentration 10: fraction of control; for IC50: read-out: PbLuc_IC50; for normalised signal at concentration 10 (first series): concentration 10, first series of dose columns; for normalised signal at concentration 10 (second series): concentration 10, second series of dose columns
[2] = sheet 2nd round, maximal inhibition in dose response
[3] = second series of columns (replicate)
[4] = sheet "2nd round", Broad compounds, dose response top concentration 10
[5] = first series of dose-response columns
[6] = sheet 2nd round, Broad compounds, dose response
[7] = second series of dose-response columns

## Cc1noc(C)c1S(=O)(=O)N(C)C[C@@H]1OCCCC[C@@H](C)Oc2ccc(N(C)C)cc2C(=O)N([C@@H](C)CO)C[C@H]1C [BRD-K31367750-001-01-1]
HepG2-A16-CD81EGFP cells; sheet 2nd round
  IC50: > 10 µM
HepG2-A16-CD81EGFP cells; [2]
  Tox_max_inhibition (%): 10%
[1]; first series of columns
  normalized signal at concentration 0.000508053: 1.082
  normalized signal at concentration 0.00152416: 1.078
  normalized signal at concentration 0.00457247: 1.115
  normalized signal at concentration 0.0137174: 1.059
  normalized signal at concentration 0.0411523: 1.054
  normalized signal at concentration 0.123457: 1.1
  normalized signal at concentration 0.37037: 1.064
  normalized signal at concentration 1.11111: 0.9576
  normalized signal at concentration 3.33333: 1.005
  normalized signal at concentration 10: 1.057
[1]; sheet 2nd round, Pb-Luc exoerythrocytic stage, 10-point dose response, top concentration 10
  IC50: > 10 µM
[1]; [3]
  normalized signal at concentration 0.000508053: 1.02
  normalized signal at concentration 0.00152416: 0.9419
  normalized signal at concentration 0.00457247: 0.9058
  normalized signal at concentration 0.0137174: 0.8746
  normalized signal at concentration 0.0411523: 0.9045
  normalized signal at concentration 0.123457: 0.9742
  normalized signal at concentration 0.37037: 0.91
  normalized signal at concentration 1.11111: 0.8518
  normalized signal at concentration 3.33333: 0.8811
  normalized signal at concentration 10: 0.9567
[1]; [2]
  PbLuc_max_inhibition (%): 15%

## C[C@H]1CCCCO[C@@H](CN(C)S(=O)(=O)c2ccc(F)cc2)[C@@H](C)CN([C@@H](C)CO)C(=O)c2cc(N(C)C)ccc2O1 [BRD-K31467596-001-01-7]
HepG2-A16-CD81EGFP cells; sheet "2nd round"
  IC50: > 10 µM
  Tox_max_inhibition (%): 19%
[1]
  normalised signal at concentration 0.000508053 (first series): 0.9636
  normalised signal at concentration 0.000508053 (second series): 1.196
  normalised signal at concentration 0.00152416 (first series): 0.9009
  normalised signal at concentration 0.00152416 (second series): 1.029
  normalised signal at concentration 0.00457247 (first series): 1.0859
  normalised signal at concentration 0.00457247 (second series): 1.054
  normalised signal at concentration 0.0137174 (first series): 0.8351
  normalised signal at concentration 0.0137174 (second series): 0.885
  normalised signal at concentration 0.0411523 (first series): 0.8724
  normalised signal at concentration 0.0411523 (second series): 1.048
  normalised signal at concentration 0.123457 (first series): 0.8924
  normalised signal at concentration 0.123457 (second series): 0.8988
  normalised signal at concentration 0.37037 (first series): 0.8075
  normalised signal at concentration 0.37037 (second series): 0.9035
  normalised signal at concentration 1.11111 (first series): 1.0319
  normalised signal at concentration 1.11111 (second series): 1.046
  normalised signal at concentration 3.33333 (first series): 0.9413
  normalised signal at concentration 3.33333 (second series): 0.9885
  normalised signal at concentration 10 (first series): 0.7997
  normalised signal at concentration 10 (second series): 0.6635
[1]; [4]
  IC50: > 10 µM
[1]; sheet "2nd round"
  PbLuc_max_inhibition (%): 34%

## COc1ccc(NC(=O)N(C)C[C@H]2Oc3ccc(NC(=O)CCN4CCOCC4)cc3C(=O)N([C@H](C)CO)C[C@@H]2C)cc1 [BRD-K36853881-001-02-5]
HepG2-A16-CD81EGFP cells; sheet 2nd round
  IC50: > 10 µM
HepG2-A16-CD81EGFP cells; [2]
  Tox_max_inhibition (%): 9%
[1]; [5]
  normalized signal at concentration 10: 0.82
[1]; first series
  normalized signal at concentration 0.000508053: 0.84
  normalized signal at concentration 0.00152416: 0.86
  normalized signal at concentration 0.00457247: 0.85
  normalized signal at concentration 0.0137174: 0.75
  normalized signal at concentration 0.0411523: 0.91
  normalized signal at concentration 0.123457: 0.88
  normalized signal at concentration 0.37037: 0.86
  normalized signal at concentration 1.11111: 0.92
  normalized signal at concentration 3.33333: 0.69
[1]; [6]
  IC50: > 10 µM
[1]; [7]
  normalized signal at concentration 10: 0.77
[1]; second series
  normalized signal at concentration 0.000508053: 1.01
  normalized signal at concentration 0.00152416: 0.81
  normalized signal at concentration 0.00457247: 0.82
  normalized signal at concentration 0.0137174: 0.71
  normalized signal at concentration 0.0411523: 0.92
  normalized signal at concentration 0.123457: 0.81
  normalized signal at concentration 0.37037: 0.84
  normalized signal at concentration 1.11111: 0.84
  normalized signal at concentration 3.33333: 0.84
[1]; [2]
  PbLuc_max_inhibition (%): 31%

## C[C@H]1CCCCO[C@H](CN(C)S(=O)(=O)c2ccc(F)cc2)[C@@H](C)CN([C@@H](C)CO)C(=O)c2cc(N(C)C)ccc2O1 [BRD-K38571893-001-01-9]
HepG2-A16-CD81EGFP cells; sheet 2nd round
  IC50: > 10 µM
HepG2-A16-CD81EGFP cells; [2]
  Tox_max_inhibition (%): -2.16%
[1]; [5]
  normalized signal at concentration 10: 0.89
[1]; first series
  normalized signal at concentration 0.000508053: 0.97
  normalized signal at concentration 0.00152416: 0.98
  normalized signal at concentration 0.00457247: 0.90
  normalized signal at concentration 0.0137174: 0.78
  normalized signal at concentration 0.0411523: 1.07
  normalized signal at concentration 0.123457: 1.18
  normalized signal at concentration 0.37037: 0.95
  normalized signal at concentration 1.11111: 0.97
  normalized signal at concentration 3.33333: 0.87
[1]; [6]
  IC50: > 10 µM
[1]; [7]
  normalized signal at concentration 10: 0.80
[1]; second series
  normalized signal at concentration 0.000508053: 1.11
  normalized signal at concentration 0.00152416: 0.83
  normalized signal at concentration 0.00457247: 0.98
  normalized signal at concentration 0.0137174: 1.18
  normalized signal at concentration 0.0411523: 1.02
  normalized signal at concentration 0.123457: 1.25
  normalized signal at concentration 0.37037: 0.98
  normalized signal at concentration 1.11111: 1.04
  normalized signal at concentration 3.33333: 0.97
[1]; [2]
  PbLuc_max_inhibition (%): 22%

## C[C@@H]1CN([C@@H](C)CO)C(=O)c2cccc(NC(=O)c3ccc(-c4nccs4)cc3)c2O[C@@H]1CN(C)C(=O)Nc1ccc(C(F)(F)F)cc1 [BRD-K43504903-001-01-1]
HepG2-A16-CD81EGFP cells; sheet "2nd round"
  IC50: > 10 µM
  Tox_max_inhibition (%): 21%
[1]
  normalised signal at concentration 0.000508053 (first series): 0.8756
  normalised signal at concentration 0.000508053 (second series): 0.7942
  normalised signal at concentration 0.00152416 (first series): 0.8514
  normalised signal at concentration 0.00152416 (second series): 0.7934
  normalised signal at concentration 0.00457247 (first series): 0.8815
  normalised signal at concentration 0.00457247 (second series): 0.6886
  normalised signal at concentration 0.0137174 (first series): 0.7217
  normalised signal at concentration 0.0137174 (second series): 0.708
  normalised signal at concentration 0.0411523 (first series): 0.6989
  normalised signal at concentration 0.0411523 (second series): 0.7835
  normalised signal at concentration 0.123457 (first series): 0.7701
  normalised signal at concentration 0.123457 (second series): 0.8493
  normalised signal at concentration 0.37037 (first series): 0.9239
  normalised signal at concentration 0.37037 (second series): 0.7292
  normalised signal at concentration 1.11111 (first series): 0.7039
  normalised signal at concentration 1.11111 (second series): 0.8779
  normalised signal at concentration 3.33333 (first series): 0.8563
  normalised signal at concentration 3.33333 (second series): 1.012
  normalised signal at concentration 10 (first series): 0.4042
  normalised signal at concentration 10 (second series): 0.5157
[1]; [4]
  IC50: > 10 µM
[1]; sheet "2nd round"
  PbLuc_max_inhibition (%): 60%
